One data set relates to EAE. Kind of data set: PLP139-151 induced EAE, episodic treatment, paralysis scores. Particulars: for MCE (mean clinical score at end) / MCS (mean clinical score) / PP (mean peak paralysis score): short term.
The target in another data set is PDI (Homo sapiens, UniProt P07237). Kind of data set: binding to PDI, sPIF compared to scrambled PIF. The source says: (FIG. 2). […] (FIG. 3). […] (FIG. 4). […] Thus dependent on the target Kv1.3 or IDE the mutated PIF-1 can have a target-specific effect which can also translate to diverse biological activity.

Marks after values point to notes of the source that are not given here.

Data on two substances can be found in patent US11090355B2, “Compositions and methods for the treatment of neurodamage” (BIOINCEPT, LLC, priority 2015, dated 2021).

Chain of PDI (P07237 18-508, species assumed): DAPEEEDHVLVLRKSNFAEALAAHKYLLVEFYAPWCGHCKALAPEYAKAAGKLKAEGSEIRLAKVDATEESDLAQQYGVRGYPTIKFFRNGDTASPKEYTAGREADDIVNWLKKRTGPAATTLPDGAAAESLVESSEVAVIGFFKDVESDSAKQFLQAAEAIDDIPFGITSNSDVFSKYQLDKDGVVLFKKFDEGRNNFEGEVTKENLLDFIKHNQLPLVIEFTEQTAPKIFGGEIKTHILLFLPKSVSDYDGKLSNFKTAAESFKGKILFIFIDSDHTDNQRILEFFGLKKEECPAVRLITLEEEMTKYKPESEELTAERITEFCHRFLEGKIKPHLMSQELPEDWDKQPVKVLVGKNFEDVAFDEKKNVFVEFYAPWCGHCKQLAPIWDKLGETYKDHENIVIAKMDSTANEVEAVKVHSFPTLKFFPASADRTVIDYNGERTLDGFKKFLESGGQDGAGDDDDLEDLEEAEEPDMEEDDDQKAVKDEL

For Glatiramer acetate [GA], the “total recovery from paraplegia (stage 4/5)” value with EAE (episodic treatment) turned out to be 12.5%. In addition, in the data set with EAE (long-term, day 50), the “mice disease free at the end of the study” value is reported as 1/9 and the mice that died entry was “three”. Further, in the data set on EAE (medium term), the mice that died result is “one” and the paralysis score entry is “increased”. Besides, the “mice with paralysis reversed / disease free” value in the data set with EAE (medium term, day 41) was 1/7. In the data set on EAE (short term study), the “mice free of paralysis at the end of the first remission” value was “none”. Moreover, in the data set on EAE (Experiment 1), the “MCE (mean clinical score at end)” value is reported as 1.3 +/− 0.4, the “MCS (mean clinical score)” value was 1.58 +/− 0.15 and the “PP (mean peak paralysis score)” value is recorded as 2.4 +/− 0.4. In addition, in the data set on EAE (Experiment 2), the “MCE (mean clinical score at end)” value was 0.8 +/− 0.2*, the “MCS (mean clinical score)” value is 1.4 +/− 0.27 and the “PP (mean peak paralysis score)” value is given as 2.5 +/− 0.4.
Turning to “GRVDPSNKSMPKDIA (scrPIF-1 (15)) [scrambled PIF]”, the “interaction with PDI target” value with PDI was “greatly reduced”.
